Results reported in article PMC5064907, “Tissue expression and antibacterial activity of host defense peptides in chicken” (BMC Veterinary Research, 2016).
Like-named read-outs stand apart in the source and are kept apart here. Residues, ends and D or L forms follow the SMILES beside them. No end group written: not given here.

How the values were obtained:
[1] = tested on: Escherichia coli ATCC 25922; format: cell-based; conditions: for Antibacterial (lytic) activity against E.coli at 5 μM: 5 μM peptide, 6 × 10^6 CFU/ml E. coli ATCC 25922, 2 h, luminescence, Fig. 2a; for Antibacterial (lytic) activity against E.coli at 5 μM / Antibacterial activity over the tested concentrations: 37 °C; for Killing activity among tested HDPs at less than 5 μM: less than 5 μM peptide; for Killing activity among tested HDPs at less than 5 μM / Relative antibacterial effect among all tested chicken HDPs: E. coli; for Killing activity among tested HDPs at less than 5 μM / Antibacterial activity over the tested concentrations: 2 h; for Antibacterial activity over the tested concentrations: 0.5, 1, 2.5 and 5 μM peptide, Fig. 2b; for Bacteria killed at 0.5 μM: ATCC 25922, 2 h; for Efficiency in reducing E. coli cell viability and damaging cell membranes (comparison among the CATHs): discussion summary of the viability and membrane damage data; for Relative antibacterial effect among all tested chicken HDPs: under test conditions (0.5-5 μM, 2 h)
Method: Gram-negative bacteria, Escherichia coli ATCC 25922, were purchased from Korean Collection for Type Culture and tested against each peptide. Cell viability analysis was carried out as previously reported. Briefly, 6 × 10^6 colony–forming units (CFU)/ml bacteria suspensions (90 μl) were placed into 96 well plates, followed by the addition of 10 μl of serial diluted peptide (final 0, 0.5, 1, 2.5, 5 μM) in triplicate. After 2 h incubation at 37 °C, equal volume of BacTiter-Glo™ Reagent (Promega) was added, and incubated for 5 min after which luminescence was measured with GloMax-Multi Detection System (Promega).
E. coli (6 × 10^6) were incubated with indicated amounts of peptide for 2 h and cell viability was compared to untreated cells. […] Each bar represents the mean ± S.D. value of at least three independent experiments. Non-treated cell considered as 100 % cell viability and peptides treated cell viability was compared and calculated in percentile. *** indicate p ≤ 0.001, ** indicate p ≤ 0.01 and * indicate p ≤ 0.05

E. coli = experiment: Detection of damaged E. coli membranes, LIVE/DEAD BacLight staining, confocal laser scanning microscopy; format: cell-based, Escherichia coli; conditions: 5 μM peptide, 6.5 × 10^6 CFU E. coli, 10 mM phosphate buffer pH 7.0, 37 °C, 2 h
Method: Fig. 3 Escherichia coli viability and membrane damage following treatment with cathelicidins. Membrane damage in E. coli treated with each synthetic cathelicidin peptide (5 μM) was detected with a LIVE/DEAD BacLight Bacterial Viability Kit. Green fluorescence indicates live bacteria with intact membranes; red fluorescence indicates dead bacteria with damaged membranes.

E.coli = conditions: previous report; cited from earlier work
Excerpt: Even though many tested chicken HDPs show varying efficiencies against pathogens, the majority kill bacteria at low concentration. […] These four peptides have very low net charge from 0.1 to 1.8. AvBD4 has 24 % hydrophobicity with 5.8 net charge and can kill bacteria very well compared to AvBD5, -8 and -13 that have the same hydrophobicity but lower cationicity of 0.1 to […].

Compound: PDSCNHDRGLCRVGNCNPGEYLAKYCFEPVILLCCKPLSPTPTKT [AvBD12, synthetic linear peptide corresponding to chicken avian β-defensin 12]
- Antibacterial (lytic) activity against E.coli at 5 μM [1]: very weak lytic activity
- Killing activity among tested HDPs at less than 5 μM [1]: minimal killing activity

Compound: CC[C@H](C)[C@H](NC(=O)[C@H](C)NC(=O)[C@H](CC(=O)O)NC(=O)[C@H](CCC(=O)O)NC(=O)[C@H](CC(=O)O)NC(=O)[C@@H]1CCCN1)C(=O)N[C@@H](CC(N)=O)C(=O)N[C@@H](CC(N)=O)C(=O)N[C@@H](C)C(=O)N[C@@H](CC(C)C)C(=O)N[C@@H](CC(N)=O)C(=O)N[C@@H](CCCCN)C(=O)N[C@H](C(=O)N[C@@H](CS)C(=O)N[C@@H](CO)C(=O)N[C@H](C(=O)NCC(=O)N[C@@H](CCCNC(=N)N)C(=O)N[C@@H](CCCNC(=N)N)C(=O)N[C@@H](CCC(N)=O)C(=O)N[C@@H](CCCNC(=N)N)C(=O)N[C@@H](CO)C(=O)N[C@H](C(=O)N[C@@H](CS)C(=O)N[C@@H](CCCCN)C(=O)N[C@@H](CCC(N)=O)C(=O)N[C@@H](CC(C)C)C(=O)N[C@@H](CC(C)C)C(=O)N[C@@H](CCCCN)C(=O)N[C@@H](CCCCN)C(=O)O)[C@@H](C)CC)[C@@H](C)O)C(C)C [cNK3] (H-PDEDAINNALNKVCSTGRRQRSICKQLLKK-OH; N-terminus and C-terminus assumed)
- Antibacterial activity over the tested concentrations [1]: very strong antibacterial activity at all concentration
- Bacteria killed at 0.5 μM [1]: 50%

Compound: PVLVQRGRFGRFLRKIRRFRPKVTITIQGSARFG [CATH2]
- Antibacterial activity over the tested concentrations [1]: very strong antibacterial activity at all concentration
- Bacteria killed at 0.5 μM [1]: 50%
- Efficiency in reducing E. coli cell viability and damaging cell membranes (comparison among the CATHs) [1]: highest efficiency
- E. coli membrane damage (red fluorescence, LIVE/DEAD BacLight) (E. coli): greater with CATH2 or CATH3 than with CATH1 or CATHB1

Compound: GLPQDCERRGGFCSHKSCPPGIGRIGLCSKEDFCCRS [AvBD5, synthetic linear peptide corresponding to chicken avian β-defensin 5]
- Antibacterial (lytic) activity against E.coli at 5 μM [1]: very weak lytic activity
- Killing activity among tested HDPs at less than 5 μM [1]: minimal killing activity

Compound: PDTVACRTQGNFCRAGACPPTFTISGQCHGGLLNCCAKIPAQ [AvBD10, synthetic linear peptide corresponding to chicken avian β-defensin 10]
- Antibacterial (lytic) activity against E.coli at 5 μM [1]: very weak lytic activity
- Killing activity among tested HDPs at less than 5 μM [1]: minimal killing activity

Compound: PVRVKRFWPLVPVAINTVAAGINLYKAIRRK [CATH3]
- Antibacterial activity over the tested concentrations [1]: very strong antibacterial activity at all concentration
- Bacteria killed at 0.5 μM [1]: 50%
- Efficiency in reducing E. coli cell viability and damaging cell membranes (comparison among the CATHs) [1]: highest efficiency
- E. coli membrane damage (red fluorescence, LIVE/DEAD BacLight) (E. coli): greater with CATH2 or CATH3 than with CATH1 or CATHB1

Compound: PIRNWWIRIWEWLNGIRKRLRQRSPFYVRGHLNVTSTPQP [CATB1]
- Efficiency in reducing E. coli cell viability and damaging cell membranes (comparison among the CATHs) [1]: weak antibacterial activity compared to others
- E. coli membrane damage (red fluorescence, LIVE/DEAD BacLight) (E. coli): greater with CATH2 or CATH3 than with CATH1 or CATHB1

Compound: TATQCRIRGGFCRVGSCRFPHIAIGKCATFISCCGR [AvBD3, synthetic linear peptide corresponding to chicken avian β-defensin 3]
- Antibacterial activity over the tested concentrations [1]: kill effectively over all tested concentrations

Compound: CSCC[C@H](NC(=O)[C@H](Cc1c[nH]cn1)NC(=O)[C@H](Cc1ccc(O)cc1)NC(=O)[C@@H](N)CCCNC(=N)N)C(=O)N[C@@H](CCC(N)=O)C(=O)N[C@@H](CS)C(=O)NCC(=O)N[C@@H](Cc1ccc(O)cc1)C(=O)N[C@@H](CCCNC(=N)N)C(=O)NCC(=O)N[C@H](C(=O)N[C@@H](Cc1ccccc1)C(=O)N[C@@H](CS)C(=O)N[C@H](C(=O)N1CCC[C@H]1C(=O)NCC(=O)N[C@@H](CCCCN)C(=O)N[C@@H](CS)C(=O)N1CCC[C@H]1C(=O)N[C@@H](Cc1ccc(O)cc1)C(=O)NCC(=O)N[C@@H](CC(N)=O)C(=O)N[C@@H](C)C(=O)N[C@@H](Cc1ccc(O)cc1)C(=O)N[C@@H](CC(C)C)C(=O)NCC(=O)N[C@@H](CC(C)C)C(=O)N[C@@H](CS)C(=O)N[C@@H](CCCNC(=N)N)C(=O)N1CCC[C@H]1C(=O)N[C@@H](CCCCN)C(=O)N[C@@H](Cc1ccc(O)cc1)C(=O)N[C@@H](CO)C(=O)N[C@@H](CS)C(=O)N[C@@H](CS)C(=O)N[C@@H](CCCNC(=N)N)C(=O)N[C@@H](Cc1c[nH]c2ccccc12)C(=O)O)[C@@H](C)O)[C@@H](C)O [AvBD4] (H-RYHMQCGYRGTFCTPGKCPYGNAYLGLCRPKYSCCRW-OH; N-terminus and C-terminus assumed)
- Antibacterial activity over the tested concentrations ([1]; listed as BD4): strongest activity among the three
- Relative antibacterial effect among all tested chicken HDPs [1]: strongest antibacterial effect among all tested chicken HDPs
- Relative antibacterial effect among all tested chicken HDPs ([1]; listed as β-defensin4): strongest antibacterial activity among all tested chicken HDPs

Compound: CC[C@H](C)[C@H](NC(=O)CNC(=O)[C@H](CC(N)=O)NC(=O)[C@H](CC(N)=O)NC(=O)[C@H](CS)NC(=O)[C@@H](NC(=O)CNC(=O)[C@@H](NC(=O)[C@H](Cc1c[nH]c2ccccc12)NC(=O)[C@H](Cc1ccc(O)cc1)NC(=O)[C@H](Cc1ccc(O)cc1)NC(=O)[C@@H]1CCCN1C(=O)[C@H](CCCNC(=N)N)NC(=O)[C@H](CCCNC(=N)N)NC(=O)[C@H](CS)NC(=O)[C@@H](NC(=O)CNC(=O)[C@@H]1CCCN1C(=O)[C@H](Cc1ccccc1)NC(=O)[C@H](CS)NC(=O)[C@H](CC(C)C)NC(=O)CNC(=O)[C@H](CC(N)=O)NC(=O)[C@H](CCCNC(=N)N)NC(=O)[C@H](CC(C)C)NC(=O)[C@H](CCCNC(=N)N)NC(=O)[C@H](CS)NC(=O)[C@@H](NC(=O)[C@H](CC(=O)O)NC(=O)[C@@H](NC(=O)[C@@H]1CCCN1C(=O)[C@@H](N)CCCNC(=N)N)[C@@H](C)CC)[C@@H](C)O)[C@@H](C)CC)[C@@H](C)CC)[C@@H](C)O)C(=O)NCC(=O)N[C@@H](CO)C(=O)N[C@@H](CS)C(=O)N[C@@H](CS)C(=O)N[C@@H](C)C(=O)N[C@@H](CCCNC(=N)N)C(=O)O [AvBD7] (H-RPIDTCRLRNGLCFPGICRRPYYWIGTCNNGIGSCCAR-OH; N-terminus and C-terminus assumed)
- Antibacterial activity over the tested concentrations [1]: very strong antibacterial activity at all concentration

Compound: NNEAQCEQAGGICSKDHCFHLHTRAFGHCQRGVPCCRTVYD [AvBD8, synthetic linear peptide corresponding to chicken avian β-defensin 8]
- Antibacterial (lytic) activity against E.coli at 5 μM [1]: very weak lytic activity
- Killing activity among tested HDPs at less than 5 μM [1]: minimal killing activity
- Lethal dose (LD)50 against E.coli (E.coli): 27 µM
